Results taken from patent US7163921B1, “Peptide derivatives and medicinal compositions” (Nippon Shinyaku Co., Ltd., priority 2000, dated 2007).
Marks after values point to notes of the source that are not given here.

Tests used:
[1] = molecular target: T1, human μ receptor (Homo sapiens, UniProt P35372); assay: μ Receptor binding test ([3H] diprenorphine displacement); conditions: Ki for μ receptor divided by Ki for nociceptin receptor
T1 construct: purchased Receptor Biology
Description: A human μ receptor-expressing cell membrane preparation (Receptor Biology) was adjusted at the membrane protein level of 8.5 μg/mL in a Tris buffer [50 mM Tris-HCl (pH 7.8), 5 mM MgCl2, 1 mM EGTA, 0.1% BSA]. To this suspension, [^3H] diprenorphine (diluted to the final concentration of 0.13 nM in the Tris buffer) and a test substance were added, and the mixture was incubated at 25° C. for 90 minutes. Using a cell harvester and a washing solution [50 mM Tris-HCl (pH 7.8), 4° C.], the membrane was recovered onto the GF/B filter which had been pretreated with 0.3% PEI, and washed further 4 times. The filter was transferred into a vial, to which a scintillator was added, and then the radioactivity was measured using a liquid scintillation counter. A non-specific binding was regarded as a binding in the presence of 100 μM naloxone, and the difference between the total binding and the non-specific binding was regarded as the specific binding. Based on the % binding inhibition in the presence of a test substance, the IC50 was obtained and employed together with the Kd value of the [^3H] diprenorphine to calculate the Ki value of the test substance (mol/L; hereinafter referred to as M value). The M value was divided by the N value obtained in Test Example 1 to judge the selectivity of the receptor binding of the test substance.

[2] = test system: Male mice (ddY); assay: Mouse formalin test; format: in vivo
Description: Male mice (ddY; 4 to 5 weeks old) were kept at a room temperature of 21 to 25° C. and a humidity of 45 to 65% in a cage having a 12-hour light/12-hour dark cycle while being fed with feed and water ad libitum, whereby being acclimatized for a period of 1 week or longer. 6 Animals in each group were employed.
The compound of Example 1 was dissolved in physiological saline. Each mouse was placed in a cylindrical tube whose diameter was about 4 cm, immobilized at its tail, and a 27G needle connected to a 1 mL syringe was inserted into its tail vein, via which 0.1 mL/10 g body weight of the drug solution was administered rapidly. In a control group, physiological saline was administered. After administration, an absorbent cotton was used for hemostasis, and the animal was returned to the observation cage. The dose of the compound of Example 1 was 1 mg or 3 mg per 1 kg body weight of each mouse.
Subsequently, each mouse was acclimatized sufficiently to the observation cage, and then placed in a retainer for the drug administration. 20 μL of a 1% formalin solution was subcutaneously administered into the plantar region of the hindpaw, and the mouse was returned to the observation cage, and examined for the duration of any aversive behavior such as licking or biting the administered hindpaw extremity over a period of 30 minutes using a stopwatch.

T1 sequence (P35372 whole entry): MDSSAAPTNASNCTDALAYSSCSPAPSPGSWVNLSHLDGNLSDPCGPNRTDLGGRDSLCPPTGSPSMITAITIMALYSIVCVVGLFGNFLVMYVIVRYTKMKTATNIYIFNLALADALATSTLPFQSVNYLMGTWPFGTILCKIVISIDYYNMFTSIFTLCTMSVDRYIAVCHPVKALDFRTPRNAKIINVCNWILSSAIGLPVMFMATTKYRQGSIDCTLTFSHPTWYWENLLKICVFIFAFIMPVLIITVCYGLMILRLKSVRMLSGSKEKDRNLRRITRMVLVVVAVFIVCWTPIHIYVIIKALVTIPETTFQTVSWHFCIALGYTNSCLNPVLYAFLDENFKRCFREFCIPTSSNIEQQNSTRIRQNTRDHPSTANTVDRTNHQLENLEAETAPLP

Compound | Selectivity (M value/N value) [1] | Duration of aversive behavior ([2]; 1 mg/kg via tail vein, 0 to 10 min after formalin administration, control 128.3) | Duration of aversive behavior ([2]; 1 mg/kg via tail vein, 10 to 30 min after formalin administration, control 261.0) | Duration of aversive behavior ([2]; 3 mg/kg via tail vein, 0 to 10 min after formalin administration, control 128.3) | Duration of aversive behavior ([2]; 3 mg/kg via tail vein, 10 to 30 min after formalin administration, control 261.0)
N=C(N)NCCCCCCN[C@@H](Cc1ccc(O)cc1)C(=O)N[C@@H](Cc1ccc(O)cc1)C(=O)N[C@@H](CCCNC(=N)N)C(=O)N[C@@H](Cc1c[nH]c2ccccc12)C(N)=O [Example 1, N-α-6-Guanidinohexyl-L-tyrosyl-L-tyrosyl-L-arginyl-L-tryptophanamide] | 93 | 80.8** sec | 163.8 s | 41.00** sec | 112.8** sec
Cc1cc(C[C@H](NCCCCCCNC(=N)N)C(=O)N[C@@H](Cc2ccc(O)cc2)C(=O)N[C@@H](CCCNC(=N)N)C(=O)N[C@H](C)c2ccc3ccccc3c2)cc(C)c1O [Example 25, N-α-6-Guanidinohexyl-3,5-dimethyl-L-tyrosyl-L-tyrosyl-N-[(R)-1-(2-naphthyl)ethyl]-L-argininamide] | 15 |  |  |  | 
Cc1cc(C[C@H](NCCCCCCNC(=N)N)C(=O)N[C@@H](Cc2cc(C)c(O)c(C)c2)C(=O)N[C@@H](CCCNC(=N)N)C(=O)N[C@H](C)c2ccc3ccccc3c2)cc(C)c1O [Example 27, N-α-6-Guanidinohexyl-3,5-dimethyl-L-tyrosyl-3,5-dimethyl-L-tyrosyl-N-[(R)-1-(2-naphthyl)ethyl]-L-argininamide] | 17 |  |  |  | 
